Test results: patent US20240318150A1, “METHODS FOR OXYFUNCTIONALIZATION OF VARIOUS SUBSTRATES USING BACTERIAL ENZYMES” (GECCO Biotech B.V., priority 2021, published 2024)

system: T3G1; test: Substrate conversion (oxyfunctionalization) by purified enzyme T3G1 with H2O2; format: biochemical, Proteobacteria bacterium; conditions: 1 mM substrate, 2 mM H2O2 (1 mM at start, to 2 mM after 90 min), 7 μM enzyme T3G1 (5 + 2 μM)
Source text: This prompted us to test the representative enzyme T3G1 against a large panel of various substrates.

Compound | % conversion
C=C(C)C1CC=C(C)CC1 (single isomer, unassigned; (+)) [(+)-limonene] | 81%
C=CCCCCCCC=C [1,9-decadiene] | 15%
C=CC(=C)C [2-methyl-1,3-butadiene] | trace
C=C(C)CC [2-methyl-1-butene] | trace
CC(=O)CCC1C(C)=CCCC1(C)C (stereo not drawn) [7,8-dihydro-α-ionone] | 50%
C[C@]12CCC(=O)C=C1CCC2=O [(S)-Hajos-Wiechert ketone] | trace
C=CCCCCCCCC [Substrate 1-decene, 1-decene] | 13%
C=CCCCCC [Substrate 1-heptene, 1-heptene] | trace
C=CCCCC [Substrate 1-hexene, 1-hexene] | trace
C=CCCCCCC [Substrate 1-octene, 1-octene] | 65%
CC12CCC(=O)C=C1CCCC2=O (centres unmarked) [Wieland-miescher ketone] | 10%
C/C=C\CCCC [cis-2-heptene] | 81%
C/C=C\CCC [cis-2-hexene] | trace
C1=C\CCCCCC/1 [cis-cyclooctene] | 83%
COc1cc(C)ccc1O [creosol] | trace
C1=CCCCC1 [cyclohexene] | 32%
CCc1ccccc1 [ethylbenzene] | trace
C1=Cc2ccccc2C1 [indene] | 27%
CCCCCCCC/C=C\CCCCCCCC(=O)O [oleic acid] | 19%

Compound | % conversion
CC(C)NCC(O)COc1cccc2ccccc12 (centres unmarked) [propanolol, reference compound] | 5%
C=Cc1ccccc1 [styrene] | 61%
CSc1ccccc1 [thioanisole] | 40%
C/C=C/CCC [trans-2-hexene] | trace
C/C=C/CCCCC [trans-2-octene] | 99%
CC/C=C/CC [trans-3-hexene] | 40%
CC/C=C/CCCC [trans-3-octene] | 99%
CCC/C=C/CCC [trans-4-octene] | 99%
C(=C\c1ccccc1)/c1ccccc1 [trans-stilbene] | 17%
CC(=O)/C=C/C1=C(C)CCCC1(C)C [trans-β-ionone] | 48%
C=C(C)[C@@H]1CCC2=CCC[C@@H](C)[C@]2(C)C1 [valencene] | 3%
C/C=C\C(=O)C1C(C)=CCCC1(C)C (stereo not drawn) [α-damascone] | 26%
CC1=CCCC(C)(C)C1/C=C/C(C)O (stereo not drawn) [α-ionol] | 61%
CC(=O)/C=C/C1C(C)=CCCC1(C)C (stereo not drawn) [α-ionone] | 61%
CC=Cc1ccccc1 [β-methyl-styrene] | 86%
C/C=C/C(=O)C1C(C)C=CCC1(C)C (centres unmarked) [δ-damascone] | 16%
(−)-carveol | 4%
terpinene | 73%

same assay, conditions: 1 mM substrate, 2 mM H2O2, 7 μM T3G1

% double epoxide [% double epoxide] | Compound | % cis (of product, printed beside % conversion) | % ee (printed beside % conversion)
 | C=C(C)C1CC=C(C)CC1 (single isomer, unassigned; (+)) [(+)-limonene] | (97.3% cis) | 
13 | C=CCCCCCCC=C [1,9-decadiene] |  | 
 | C=Cc1ccccc1 [styrene] |  | (17% ee)
 | CSc1ccccc1 [thioanisole] |  | (74% ee)
